Results on 28 compounds are retold here after patent publication US9771369B2, “Compounds and methods for kinase modulation, and indications therefor” (Plexxikon Inc., priority 2014, dated 2017).

Molecules are shown by their SMILES.

This experiment deals with c-kit mutant D816V (Homo sapiens (Human), UniProt P10721, D816V/DEL694-753). As to the kind of experiment: c-Kit mutant D816V biochemical assay (AlphaScreen kinase activity). The gist of the method:
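AlphaScreen with streptavidin donor and PY30 acceptor beads read phosphotyrosine on biotin-(E4Y)10 substrate (30 nM). Enzyme: E. coli-expressed N-His c-Kit D816V, residues 551-934 lacking kinase insert 694-753. Reaction 30 min at room temperature, 10 μM ATP, 5% DMSO; IC50 fitted over 8 three-fold dilutions.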

c-kit mutant D816V, sequence (P10721 other isoform, or with tags, fused parts or gaps D816V/del 694-753): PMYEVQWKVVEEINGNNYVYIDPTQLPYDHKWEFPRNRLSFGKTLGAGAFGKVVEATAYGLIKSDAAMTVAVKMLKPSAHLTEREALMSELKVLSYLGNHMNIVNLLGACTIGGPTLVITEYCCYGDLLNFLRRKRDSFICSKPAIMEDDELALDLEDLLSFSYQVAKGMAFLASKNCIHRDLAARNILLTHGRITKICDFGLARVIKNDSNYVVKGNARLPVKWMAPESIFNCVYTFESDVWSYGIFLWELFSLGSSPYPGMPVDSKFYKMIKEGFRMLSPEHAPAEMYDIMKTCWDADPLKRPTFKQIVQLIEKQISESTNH

Consider `Cc1nc(C2CCN(c3ncnc4[nH]c(-c5ccc(C#N)cc5)cc34)CC2)[nH]c1-c1ccc(C(F)(F)F)cc1` [P-3137, 4-[4-[4-[4-methyl-5-[4-(trifluoromethyl)phenyl]-1H-imidazol-2-yl]-1-piperidyl]-7H-pyrrolo[2,3-d]pyrimidin-6-yl]benzonitrile], for which the half-inhibitory concentration (IC50) fell in the range of 0.0001 to 1 µM.
`Cc1nc(C2CCN(c3ncnc4[nH]c(-c5cnn(C(F)F)c5)cc34)CC2)[nH]c1-c1ccc2c(c1)OCO2` [P-3138, 4-[4-[5-(1,3-benzodioxol-5-yl)-4-methyl-1H-imidazol-2-yl]-1-piperidyl]-6-[1-(difluoromethyl)pyrazol-4-yl]-7H-pyrrolo[2,3-d]pyrimidine] gave an IC50 of 0.0001 to 1 µM.
Consider `CCOc1ccc(-c2[nH]c(C3CCN(c4ncnc5[nH]c(-c6cnn(C(F)F)c6)cc45)CC3)nc2C)cc1C` [P-3139, 6-[1-(difluoromethyl)pyrazol-4-yl]-4-[4-[5-(4-ethoxy-3-methyl-phenyl)-4-methyl-1H-imidazol-2-yl]-1-piperidyl]-7H-pyrrolo[2,3-d]pyrimidine], for which the IC50 was in the range of 0.0001 to 1 µM.
The compound `CCC1(c2nc(C)c(-c3ccc(OC)cc3)[nH]2)CCN(c2ncnc3[nH]c(C)cc23)CC1` [P-3140, 4-[4-ethyl-4-[5-(4-methoxyphenyl)-4-methyl-1H-imidazol-2-yl]-1-piperidyl]-6-methyl-7H-pyrrolo[2,3-d]pyrimidine] returned an IC50 of 0.0001 to 1 µM.
Regarding `CCC1(c2nc(C)c(-c3ccc(OC)c(C)c3)[nH]2)CCN(c2ncnc3[nH]c(C)cc23)CC1` [P-3141, 4-[4-ethyl-4-[5-(4-methoxy-3-methyl-phenyl)-4-methyl-1H-imidazol-2-yl]-1-piperidyl]-6-methyl-7H-pyrrolo[2,3-d]pyrimidine], the concentration for half-maximal inhibition (IC50) was 0.0001 to 1 µM.
Next, `CCOc1ccc(-c2[nH]c(C3(CC)CCN(c4ncnc5[nH]c(C)cc45)CC3)nc2C)cc1C` [P-3142, 4-[4-[5-(4-ethoxy-3-methyl-phenyl)-4-methyl-1H-imidazol-2-yl]-4-ethyl-1-piperidyl]-6-methyl-7H-pyrrolo[2,3-d]pyrimidine]: 0.0001 to 1 µM; `CCC1(c2nc(C)c(-c3ccc4c(c3)OCO4)[nH]2)CCN(c2ncnc3[nH]c(C)cc23)CC1` [P-3143, 4-[4-[5-(1,3-benzodioxol-5-yl)-4-methyl-1H-imidazol-2-yl]-4-ethyl-1-piperidyl]-6-methyl-7H-pyrrolo[2,3-d]pyrimidine]: 0.0001 to 1 µM; `CCC1(c2nc(C)c(-c3ccc4c(c3)OCCO4)[nH]2)CCN(c2ncnc3[nH]c(C)cc23)CC1` [P-3144, 4-[4-[5-(2,3-dihydro-1,4-benzodioxin-6-yl)-4-methyl-1H-imidazol-2-yl]-4-ethyl-1-piperidyl]-6-methyl-7H-pyrrolo[2,3-d]pyrimidine]: 0.0001 to 1 µM.
In the case of `CCOc1ccc(-c2[nH]c(C3(CC)CCN(c4ncnc5[nH]c(C)cc45)CC3)nc2C)cc1` [P-3145, 4-[4-[5-(4-ethoxyphenyl)-4-methyl-1H-imidazol-2-yl]-4-ethyl-1-piperidyl]-6-methyl-7H-pyrrolo[2,3-d]pyrimidine], the half-inhibitory concentration (IC50) was 0.0001 to 1 µM.
With `COc1ccc(-c2[nH]c(C3CCN(c4ncnc5[nH]c(-c6ccnc(OC)c6)cc45)CC3)nc2C(F)(F)F)cc1` [P-3146, 4-[4-[5-(4-methoxyphenyl)-4-(trifluoromethyl)-1H-imidazol-2-yl]-1-piperidyl]-6-(2-methoxy-4-pyridyl)-7H-pyrrolo[2,3-d]pyrimidine] the figure was 0.0001 to 1 µM.
In turn, `COc1ccc(-c2[nH]c(C3CCN(c4ncnc5[nH]c(-c6ccc(C#N)cc6)cc45)CC3)nc2C(F)(F)F)cc1` [P-3148, 4-[4-[4-[5-(4-methoxyphenyl)-4-(trifluoromethyl)-1H-imidazol-2-yl]-1-piperidyl]-7H-pyrrolo[2,3-d]pyrimidin-6-yl]benzonitrile] gave an IC50 of 0.0001 to 1 µM.
With `COc1cc(-c2cc3c(N4CCC(c5nc(C)c(-c6ccc(C(F)(F)F)cc6)[nH]5)CC4)ncnc3[nH]2)ccn1` [P-3149, 6-(2-methoxy-4-pyridyl)-4-[4-[4-methyl-5-[4-(trifluoromethyl)phenyl]-1H-imidazol-2-yl]-1-piperidyl]-7H-pyrrolo[2,3-d]pyrimidine] the figure was 0.0001 to 1 µM; with `Cc1cc2c(N3CCC(C)(c4nc(C)c(-c5ccc6c(c5)OCO6)[nH]4)CC3)ncnc2[nH]1` [P-3150, 4-[4-[5-(1,3-benzodioxol-5-yl)-4-methyl-1H-imidazol-2-yl]-4-methyl-1-piperidyl]-6-methyl-7H-pyrrolo[2,3-d]pyrimidine], 0.0001 to 1 µM.
The compound `Cc1cc2c(N3CCC(C)(c4nc(C)c(-c5ccc6c(c5)OCCO6)[nH]4)CC3)ncnc2[nH]1` [P-3151, 4-[4-[5-(2,3-dihydro-1,4-benzodioxin-6-yl)-4-methyl-1H-imidazol-2-yl]-4-methyl-1-piperidyl]-6-methyl-7H-pyrrolo[2,3-d]pyrimidine] yielded an IC50 of 0.0001 to 1 µM.
With `Cc1cc2c(N3CCC(C)(c4nc(C)c(-c5ccc6c(c5)OC(F)(F)O6)[nH]4)CC3)ncnc2[nH]1` [P-3152, 4-[4-[5-(2,2-difluoro-1,3-benzodioxol-5-yl)-4-methyl-1H-imidazol-2-yl]-4-methyl-1-piperidyl]-6-methyl-7H-pyrrolo[2,3-d]pyrimidine], the IC50 was in the range of 0.0001 to 1 µM.
Compound `COc1ccc(-c2[nH]c(C3(C)CCN(c4ncnc5[nH]c(-c6cnn(C(F)F)c6)cc45)CC3)nc2C)cc1` [P-3153, 6-[1-(difluoromethyl)pyrazol-4-yl]-4-[4-[5-(4-methoxyphenyl)-4-methyl-1H-imidazol-2-yl]-4-methyl-1-piperidyl]-7H-pyrrolo[2,3-d]pyrimidine] yielded an IC50 of 0.0001 to 1 µM.
`COc1ccc(-c2[nH]c(C3(C)CCN(c4ncnc5[nH]c(-c6cnn(C(F)F)c6)cc45)CC3)nc2C)cc1C` [P-3154, 6-[1-(difluoromethyl)pyrazol-4-yl]-4-[4-[5-(4-methoxy-3-methyl-phenyl)-4-methyl-1H-imidazol-2-yl]-4-methyl-1-piperidyl]-7H-pyrrolo[2,3-d]pyrimidine] came in with an IC50 of 0.0001 to 1 µM.
The compound `Cc1nc(C2(C)CCN(c3ncnc4[nH]c(-c5cnn(C(F)F)c5)cc34)CC2)[nH]c1-c1ccc2c(c1)OCO2` [P-3155, 4-[4-[5-(1,3-benzodioxol-5-yl)-4-methyl-1H-imidazol-2-yl]-4-methyl-1-piperidyl]-6-[1-(difluoromethyl)pyrazol-4-yl]-7H-pyrrolo[2,3-d]pyrimidine] yielded a 50% inhibitory concentration (IC50) of 0.0001 to 1 µM.
Next, `COc1ccc(-c2[nH]c(C3(C)CCN(c4ncnc5[nH]c(-c6ccc(OC)nc6)cc45)CC3)nc2C)cc1` [P-3156, 4-[4-[5-(4-methoxyphenyl)-4-methyl-1H-imidazol-2-yl]-4-methyl-1-piperidyl]-6-(6-methoxy-3-pyridyl)-7H-pyrrolo[2,3-d]pyrimidine]: 0.0001 to 1 µM; `COc1ccc(-c2cc3c(N4CCC(C)(c5nc(C)c(-c6ccc(OC)c(C)c6)[nH]5)CC4)ncnc3[nH]2)cn1` [P-3157, 4-[4-[5-(4-methoxy-3-methyl-phenyl)-4-methyl-1H-imidazol-2-yl]-4-methyl-1-piperidyl]-6-(6-methoxy-3-pyridyl)-7H-pyrrolo[2,3-d]pyrimidine]: 0.0001 to 1 µM; `COc1ccc(-c2cc3c(N4CCC(C)(c5nc(C)c(-c6ccc7c(c6)OCO7)[nH]5)CC4)ncnc3[nH]2)cn1` [P-3158, 4-[4-[5-(1,3-benzodioxol-5-yl)-4-methyl-1H-imidazol-2-yl]-4-methyl-1-piperidyl]-6-(6-methoxy-3-pyridyl)-7H-pyrrolo[2,3-d]pyrimidine]: 0.0001 to 1 µM.
As for `Cc1nc(C2(C)CCN(c3ncnc4[nH]c(-c5ccc(C#N)cc5)cc34)CC2)[nH]c1-c1ccc2c(c1)OCO2` [P-3159, 4-[4-[4-[5-(1,3-benzodioxol-5-yl)-4-methyl-1H-imidazol-2-yl]-4-methyl-1-piperidyl]-7H-pyrrolo[2,3-d]pyrimidin-6-yl]benzonitrile], the 50% inhibitory concentration (IC50) was 0.0001 to 1 µM.
The compound `CCOc1ccc(-c2[nH]c(C3(C)CCN(c4ncnc5[nH]c(-c6ccc(C#N)cc6)cc45)CC3)nc2C)cc1C` [P-3160, 4-[4-[4-[5-(4-ethoxy-3-methyl-phenyl)-4-methyl-1H-imidazol-2-yl]-4-methyl-1-piperidyl]-7H-pyrrolo[2,3-d]pyrimidin-6-yl]benzonitrile] showed an IC50 of 0.0001 to 1 µM.
In the case of `CCOc1ccc(-c2[nH]c(C3(C)CCN(c4ncnc5[nH]c(-c6ccc(C#N)cc6)cc45)CC3)nc2C)cc1` [P-3161, 4-[4-[4-[5-(4-ethoxyphenyl)-4-methyl-1H-imidazol-2-yl]-4-methyl-1-piperidyl]-7H-pyrrolo[2,3-d]pyrimidin-6-yl]benzonitrile], the IC50 was 0.0001 to 1 µM.
Turning to `Cc1nc(C2CCN(c3ncnc4[nH]c(-c5ccc(C#N)cc5)cc34)CC2)[nH]c1-c1ccc(C(F)F)cc1` [P-3162, 4-[4-[4-[5-[4-(difluoromethyl)phenyl]-4-methyl-1H-imidazol-2-yl]-1-piperidyl]-7H-pyrrolo[2,3-d]pyrimidin-6-yl]benzonitrile], the half-inhibitory concentration (IC50) lay within 0.0001 to 1 µM.
Next, `COc1ccc(-c2[nH]c(C3(C)CCN(c4ncnc5[nH]c(-c6ccc(C#N)cc6)cc45)CC3)nc2C)cc1F` [P-3163, 4-[4-[4-[5-(3-fluoro-4-methoxy-phenyl)-4-methyl-1H-imidazol-2-yl]-4-methyl-1-piperidyl]-7H-pyrrolo[2,3-d]pyrimidin-6-yl]benzonitrile]: 0.0001 to 1 µM; `Cc1nc(C2(C)CCN(c3ncnc4[nH]c(-c5ccc(C#N)cc5)cc34)CC2)[nH]c1-c1ccc(C(F)F)cc1` [P-3164, 4-[4-[4-[5-[4-(difluoromethyl)phenyl]-4-methyl-1H-imidazol-2-yl]-4-methyl-1-piperidyl]-7H-pyrrolo[2,3-d]pyrimidin-6-yl]benzonitrile]: 0.0001 to 1 µM.
Next, `Cc1cc2c(N3CCC(C)(c4nc(C)c(-c5ccc(C(F)(F)F)cc5)[nH]4)CC3)ncnc2[nH]1` [P-3165, 6-methyl-4-[4-methyl-4-[4-methyl-5-[4-(trifluoromethyl)phenyl]-1H-imidazol-2-yl]-1-piperidyl]-7H-pyrrolo[2,3-d]pyrimidine]: 0.0001 to 1 µM.
